Reference: patent US11360080B2, “AhR-ROR-γt complex as a biomarker and therapeutic target for autoimmune disease and IL-17A-associated disease” (NATIONAL HEALTH RESEARCH INSTITUTES, priority 2018, dated 2022)
Structures can show the parent of a compound that is named as a salt.

Legend:
[1] = system: EAE in wild-type mice; assay: Experimental autoimmune encephalomyelitis (EAE) induction in wild-type mice; type: in vivo, mouse; conditions: C1 0.556 nmole/g, C2 0.085 nmole/g; for serum IL-17A levels in EAE: day 16
Text: (A to C) Effect of the GLK inhibitor C1 (verteporfin) administration (0.556 nmole/g every 3 days for 30 days) on serum IL-17A and autoantibodies in Lck-GLK Tg mice. (B) ELISA of indicated serum cytokines in Lck-GLK Tg mice treated with C1 (verteporfin) or PBS. (C) ELISA of serum autoantibodies in Lck-GLK Tg mice treated with C1 (verteporfin) or PBS. Means±SEM are shown. (D) Experimental autoimmune encephalomyelitis (EAE) induction in wild-type mice treated with PBS, or the GLK inhibitor C1 (verteporfin) and C2. Clinical scores are presented on a scale of 1 to 5 (left panel). ELISA of IL-17A in the sera from MOG-immunized mice at day 16 (right panel). (E) Collagen-induced arthritis (CIA) induction in wild-type mice treated with the GLK inhibitor C1 (verteporfin) or PBS. Clinical scores are presented on a scale of 1 to 16 (left panel). ELISA of IL-17A in the sera from collagen-immunized mice at day 28. Means±SEM are shown. *, P value<0.05; **, P value<0.01; ***, P value<0.001 (two-tailed Student's […]). C1 denotes verteporfin; C2 denotes alexidine dihydrochloride.
Moreover, overproduction of autoantibodies in Lck-GLK Tg mice were also abolished by C1 (verteporfin) treatment (FIG. 10C). […] To further verify that the GLK inhibitors also works in IL-17A-mediated animal models, we challenged wild-type mice with C1 (verteporfin) or C2 (alexidine dihydrochloride) during EAE and CIA induction.

[2] = system: splenic T cells (Treg differentiation); assay: In vitro Treg differentiation, flow cytometry of Foxp3-producing CD4+ T cells; type: cell-based, mouse; conditions: 5 μM
Protocol: (A) Flow cytometry of IL-17A-producing CD4^+ T cells. Splenic T cells were co-treated with verteporfin (C1) (1 or 5 μM) during Th17 differentiation in vitro. (B) Flow cytometry of IL-17A-producing CD4^+ T cells. Murine in vitro differentiated Th17 cells were stimulated with PMA plus ionomycin and co-treated with verteporfin (C1) (1 or 5 μM) for 30 min. (C) Flow cytometry of Foxp3-producing […] T cells. Splenic T cells were co-treated with verteporfin (C1) (5 μM) during Treg differentiation in vitro. (D) Flow cytometry of Foxp3-producing CD4^+ T cells, which were differentiated from CD4^+ T cells of wild-type or Lck-GLK transgenic mice.

[3] = target: T1, GLK dimers (Homo sapiens, UniProt Q8IVH8); assay: Co-immunoprecipitation of Flag-tagged GLK and GFP-fusion GLK in HEK293T cells; type: cell-based; conditions: HEK293T co-IP
T1 construct: expressed in transfected cells; host or cells: HEK293T
T1 sequence (Q8IVH8 whole entry, the tested form may be a part): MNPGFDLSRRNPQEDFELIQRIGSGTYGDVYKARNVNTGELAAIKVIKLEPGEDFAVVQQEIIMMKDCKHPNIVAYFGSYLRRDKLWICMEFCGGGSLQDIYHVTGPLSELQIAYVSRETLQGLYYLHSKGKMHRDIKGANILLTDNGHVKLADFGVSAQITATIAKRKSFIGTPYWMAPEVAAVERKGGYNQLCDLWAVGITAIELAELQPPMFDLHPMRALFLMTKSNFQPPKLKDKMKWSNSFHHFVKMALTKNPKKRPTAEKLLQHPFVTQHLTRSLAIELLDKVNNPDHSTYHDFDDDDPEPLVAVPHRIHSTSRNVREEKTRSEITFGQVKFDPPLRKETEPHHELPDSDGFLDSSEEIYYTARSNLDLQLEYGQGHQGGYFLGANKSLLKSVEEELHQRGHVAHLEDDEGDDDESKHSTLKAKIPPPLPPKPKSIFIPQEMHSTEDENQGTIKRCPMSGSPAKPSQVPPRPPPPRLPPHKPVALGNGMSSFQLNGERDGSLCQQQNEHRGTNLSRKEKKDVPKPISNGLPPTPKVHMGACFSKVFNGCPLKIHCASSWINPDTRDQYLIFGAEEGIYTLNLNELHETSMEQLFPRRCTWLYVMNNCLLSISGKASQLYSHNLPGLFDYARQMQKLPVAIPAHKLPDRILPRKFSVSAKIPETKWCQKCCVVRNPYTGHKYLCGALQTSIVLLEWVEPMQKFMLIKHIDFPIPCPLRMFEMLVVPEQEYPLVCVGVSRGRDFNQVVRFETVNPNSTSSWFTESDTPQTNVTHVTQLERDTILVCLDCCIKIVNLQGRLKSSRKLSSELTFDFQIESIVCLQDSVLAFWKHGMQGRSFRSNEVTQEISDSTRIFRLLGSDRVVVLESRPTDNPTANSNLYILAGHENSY
Text: (A) The molecular docking of GLK kinase domain structure with C1 (verteporfin). A three-dimensional structure model depicts the binding of C1 to the predicted GLK kinase domain containing phosphorylated Ser-170. The putative binding affinity was −7.4 kcal/mol. (B) The molecular docking of GLK kinase domain structure with C2 (alexidine dihydrochloride). A three-dimensional structure model depicts the binding of C2 to the predicted GLK kinase domain containing phosphorylated Ser-170. The putative binding affinity was −7.0 kcal/mol. (C) Co-immunoprecipitation (co-IP) of Flag-tagged GLK and GFP-fusion GLK using lysates of HEK293T cells co-transfected with Flag-GLK and GFP-GLK plasmids. Cells were treated with C1 (verteporfin) or C2 (alexidine dihydrochloride). (D) Administration of the GLK inhibitor C1 (0.556 nmole/g) or C2 (0.085 nmole/g) every 3 days for 30 days in the LLC/luc metastatic lung cancer mouse model. (E) The luciferase activity in mice treated with C1 (verteporfin), C2 (alexidine dihydrochloride), or vehicle was detected by IVIS Spectrum. (F) Luminescent intensity of photons emitted from LLC/luc cells in the images in (e) was quantified. (G) Representative immunohistochemistry of H&E in lung tissues from mice treated with C1 (verteporfin), C2, or vehicle. Scale bar, 0.5 cm. […]

dimerization of Flag-tagged GLK protein and GFP-GLK fusion protein [3]	Structure (SMILES)	disease severity (clinical score) in EAE [1]	serum IL-17A levels in EAE [1]	in vitro Treg (Foxp3-expressing CD4+ T cell) differentiation [2]
blocked	C=Cc1c(C)c2cc3nc(cc4[nH]c(cc5nc(cc1[nH]2)C(C)=C5CCC(=O)O)c(CCC(=O)OC)c4C)[C@@]1(C)C3=CC=C(C(=O)OC)[C@H]1C(=O)OC [C1, verteporfin]	significantly suppressed	significantly suppressed	enhanced
	CCCCC(CC)CNC(=N)NC(=N)NCCCCCCNC(=N)NC(=N)NCC(CC)CCCC (stereo not drawn) [C2, alexidine dihydrochloride]	significantly suppressed	significantly suppressed	
